# Tests used:
# Type in all cases: cell-based
# HEK293T-ACE2 cells = test: Cytotoxicity assay, resazurin method; settings: maximum concentration with cytotoxicity lower than 10%
# Method: (§1) The maximum non-toxic concentration was assessed using the resazurin method. Briefly, HEK293T-ACE2 cells were cultured at 1 × 10^4 cells/well in a 96-well plate in the presence of different concentrations of the natural products. Vehicle (DMSO)-treated cells were used as a control and normalizer. Resazurin was added 48 h later, and after 3 h, cell viability was determined. Absorbance was measured on the MultiskanTM GO (ThermoScientific, Waltham, MA, USA) at 570 and 630 nm. The MNTC is the maximum concentration with a cytotoxicity lower than 10%.
# [1] = Cytotoxicity assay, resazurin method; settings: human, HEK293T-ACE2 cells, HEK-293T ACE2 cells, unit inferred
# Method: as §1
# [2] = system: pseudotyped virus carrying the vesicular stomatitis virus glycoprotein G (VSV-G)
Molecule,MNTC (maximum non-toxic concentration) (HEK293T-ACE2 cells),CC50 at 48 h [1],inhibitory activity against the entry of the VSV-G-pseudotyped virus [2]
CC1=C[C@H](O)[C@H]2C[C@@H]1C2(C)C (relative stereo) [cis-Verbenol],250 µg/mL,,
C/C=C/[C@H]1OC(=O)C=C[C@H]1OC(C)=O [Acetylphomolactone],4.5 µg/mL,,
CC(=O)OC1C=CC(=O)OC1C1OC1C (centres unmarked) [Asperline],7.81 µg/mL,,
CC(=O)C1COC(O)C1C (centres unmarked) [Botryodiplodin],3 µg/mL,,
C=C1CC[C@H]2O[C@]2(C)CC[C@@H]2[C@@H]1CC2(C)C [Caryophyllene Oxide],31.25 µg/mL,,
C[C@H]1CC[C@@H](C(C)(C)O)CC2=C1CC[C@@H]2C [Guaiol],33.3 µg/mL,,
C=CC(C)(O)CCC=C(C)C (centres unmarked) [Linalool],125 µg/mL,,
CC(O)[C@@H]1NC(=O)c2cccn2C1=O (some centres unmarked) [Macrophominol],36 µg/mL,,
C=C(C)[C@H]1CC=C(C)CC1 [R-Limonene],31.25 µg/mL,,
C=C1CC/C=C(\C)CC[C@@H]2[C@@H]1CC2(C)C [β-Caryophyllene],125 µg/mL,183 µg/mL,low inhibitory activity
Isoasperline,7.19 µg/mL,,
S-Limonene,31.25 µg/mL,,

# Source: publication PMC8911944, “Screening of Natural Products Inhibitors of SARS-CoV-2 Entry” (Molecules, 2022)
